By logD is commonly meant the decadic logarithm of the distribution of all forms, ionised or not, between an organic phase and buffer at a given pH. High values mean a more lipophilic compound, low ones a more hydrophilic compound. For orientation: fraction unbound means free concentration divided by total concentration. Broadly, the half-life is how long it takes for the measured level to halve. Broadly, the IC50 is the point on the concentration scale where inhibition reaches its midpoint. A high value points to lower potency. The Papp A→B is how fast a substance crosses the layer from the apical side. Lower therefore signals poor permeation. Usually solubility stands for how much of the substance goes into solution per volume. A higher solubility goes with a readily soluble substance. What is called Ki is a dissociation constant, usually derived from enzyme kinetics or from competition with a known ligand. Lower therefore signals tighter binding.

Values after ≈ are worked out from the molar mass of the structure shown. Where only a bound is given, the exact number is not on record here.

Series [1] can be described thus: physchem. The settings on record: buffer, pH 7.4.
Description: Lipophilicity, logD of compound at pH 7.4
Series [2] is described as follows: Intrinsic clearance in rat hepatocytes assessed per million cells. The series is classed as ADME, cell-based, Hepatocyte. The settings on record: read-out: CLH.
A short description of series [3]: Oral bioavailability at steady state in Wistar Han rat at 1 mg/kg. The series is classed as ADME, organism-based. Particulars: in vivo.
The nature of series [4]: Unbound protein binding in rat plasma by equilibrium dialysis. The series is classed as ADME, cell-free. On the technique in general: In equilibrium dialysis only unbound substance equilibrates across the membrane.
A short description of series [5]: Volume of distribution at steady state in Wistar Han rat at 1 mg/kg, po or 0.5 mg/kg, iv. The series is classed as ADME, organism-based. Particulars: in vivo.
Series [6] is described as follows: Half life in Wistar Han rat at 1 mg/kg, po or 0.5 mg/kg, iv. The series is classed as ADME, organism-based. The settings on record: in vivo.
The target in series [7] is Protein arginine N-methyltransferase 5 (Homo sapiens, UniProt O14744).
Description: Inhibition of PRMT5 in human HCT-116 cells with MTAP KO assessed as decrease in SMDA level incubated for 48 hrs by immunofluorescence analysis
Series [8] deals with T1, PRMT5/MEP50 complex (Homo sapiens, UniProt O14744). Description: biochemical.
Description: Inhibition of PRMT5 (1 to 637 residues)/MEP504 (2 to 342 residues)(unknown origin) expressed in baculovirus infected Sf21 insect cells using histone H4/SAM as substrate incubated for 5 hrs in presence of MTA by MTase Glo assay
A further series deals with HCT-116. Nature of the series: Cooperativity fold, ratio of IC50 for PRMT5 in human HCT-116 cells expressing wild-type MTAP assessed as decrease in SMDA level to IC50 for PRMT5 in human HCT-116 cells with MTAP KO assessed as decrease in SMDA level. The series is classed as cell-based.
Series [9] in a line: Intrinsic clearance in human hepatocytes assessed per million cells. It counts as ADME, cell-based, Hepatocyte. The settings on record: read-out: CLH.
Series [10] has as its system Lu-99 cell line. Nature of the series: Antitumor activity against human Lu-99 cells xenografted in nude mouse assessed as tumor growth inhibition administered orally twice a day measured for 21 days. The series is classed as functional, cell-based. Particulars: dose 1-10 mg/kg, route po, time 21.0 day.
Series [11] relates to Lu-99 cell line. Nature of the series: Antiproliferative activity against human Lu-99 cells incubated for 7 days. The series is classed as functional, cell-based. The settings on record: Lu-99, 168 h.
Series [12] can be described thus: Volume of distribution at steady state in CD-1 mouse at 1 mg/kg, po or 0.5 mg/kg, iv. It counts as ADME, organism-based. The settings on record: in vivo.
Series [13] relates to Lu-99 cell line. Nature of the series: Antitumor activity against human Lu-99 cells xenografted in nude mouse at 100 mg/kg, po bid measured after 21 days relative to control. It counts as functional. The settings on record: Lu-99, 504 h, time 21 day, read-out: TGI. In general terms: Xenograft models place foreign cells or tissue in a host animal.
Series [14] can be described thus: Antitumor activity against human PDX GA2254 cells xenografted in Balb/c nude mouse assessed as inhibition of SDMA level at 50 mg/kg, po bid measured for 21 days relative to control. The series is classed as functional. The settings on record: PDX GA2254, 504 h, time 21 day, read-out: TGI.
Series [15] in a line: Antitumor activity against human PDX GA2254 cells xenografted in Balb/c nude mouse assessed as tumor regression at 50 mg/kg, po bid measured for 21 days relative to control. The series is classed as functional. The settings on record: time 21 day.
A short description of the next series: in vitro. The settings on record: human, Caco-2.
For series [16], the system named is Lu-99 cell line. Nature of the series: Antitumor activity against human Lu-99 cells xenografted in nude mouse assessed as inhibition of SDMA level at 100 mg/kg, po bid measured after 21 days relative to control. Particulars: Lu-99, 504 h, time 21 day. It counts as functional.
Series [17] can be described thus: Antitumor activity against human PDX GA2254 cells xenografted in Balb/c nude mouse assessed as inhibition of SDMA level at 10 mg/kg, po bid measured for 21 days relative to control. It counts as functional. Particulars: PDX GA2254, 504 h, time 21 day, read-out: TGI.
A short description of series [18]: physchem. The settings on record: phosphate buffer, pH 7.4.
Another series concerns the target Translocator protein (Homo sapiens, UniProt P30536). Description: Inhibition of human TSPO.
Series [19] in a line: Toxicity in nude mouse xenografted with human Lu-99 cells assessed as body weight loss upto 100 mg/kg, po bid measured for 21 days. It counts as organism-based. The settings on record: in vivo, 504 h, time 21 day.
Series [20] can be described thus: Oral bioavailability in CD-1 mouse at 1 mg/kg. The series is classed as ADME, organism-based. The settings on record: in vivo.
Series [21] in a line: Antitumor activity against human PDX GA2254 cells xenografted in Balb/c nude mouse assessed as inhibition of SDMA level at 1 mg/kg, po bid measured for 21 days relative to control. It counts as functional. The settings on record: PDX GA2254, 504 h, time 21 day, read-out: TGI.
A short description of series [22]: Antitumor activity against human PDX GA2254 cells xenografted in Balb/c nude mouse at 10 mg/kg, po bid measured for 21 days relative to control. The series is classed as functional. The settings on record: PDX GA2254, 504 h, time 21 day, read-out: TGI.
Series [23] can be described thus: Half life in CD-1 mouse at 1 mg/kg, po or 0.5 mg/kg, iv. The series is classed as ADME, organism-based. Particulars: in vivo.
The test system of series [24] is Lu-99 cell line. Description: Antitumor activity against human Lu-99 cells xenografted in nude mouse assessed as inhibition of SDMA level administered orally twice a day measured for 21 days. Particulars: dose 1-10 mg/kg, route po, time 21.0 day. The series is classed as functional, cell-based.
The target in series [25] is T1, PRMT5/MEP50 complex. Nature of the series: biochemical. The source holds these as a separate data set.
Description: Inhibition of PRMT5 (1 to 637 residues)/MEP504 (2 to 342 residues)(unknown origin) expressed in baculovirus infected Sf21 insect cells using histone H4/SAM as substrate incubated for 5 hrs by MTase Glo assay

Sequence of Protein arginine N-methyltransferase 5 (O14744 whole entry): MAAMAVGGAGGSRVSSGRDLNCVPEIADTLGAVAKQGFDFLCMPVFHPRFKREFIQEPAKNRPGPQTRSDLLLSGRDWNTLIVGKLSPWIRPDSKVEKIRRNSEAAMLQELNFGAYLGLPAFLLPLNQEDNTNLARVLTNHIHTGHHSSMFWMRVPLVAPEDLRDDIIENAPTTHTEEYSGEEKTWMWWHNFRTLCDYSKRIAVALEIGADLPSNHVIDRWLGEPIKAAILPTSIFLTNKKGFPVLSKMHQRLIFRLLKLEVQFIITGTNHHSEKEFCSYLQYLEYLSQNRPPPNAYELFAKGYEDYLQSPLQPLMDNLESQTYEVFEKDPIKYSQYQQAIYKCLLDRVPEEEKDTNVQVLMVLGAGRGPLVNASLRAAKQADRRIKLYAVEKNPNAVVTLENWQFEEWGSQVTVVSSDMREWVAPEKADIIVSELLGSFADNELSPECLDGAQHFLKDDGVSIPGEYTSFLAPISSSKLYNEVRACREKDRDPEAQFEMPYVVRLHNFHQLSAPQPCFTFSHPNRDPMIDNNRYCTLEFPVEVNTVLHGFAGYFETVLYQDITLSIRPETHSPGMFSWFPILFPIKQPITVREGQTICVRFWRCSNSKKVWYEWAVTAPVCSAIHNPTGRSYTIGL
T1 sequence (O14744 whole entry): as above
T1 sequence (Q9BQA1 whole entry, further chain): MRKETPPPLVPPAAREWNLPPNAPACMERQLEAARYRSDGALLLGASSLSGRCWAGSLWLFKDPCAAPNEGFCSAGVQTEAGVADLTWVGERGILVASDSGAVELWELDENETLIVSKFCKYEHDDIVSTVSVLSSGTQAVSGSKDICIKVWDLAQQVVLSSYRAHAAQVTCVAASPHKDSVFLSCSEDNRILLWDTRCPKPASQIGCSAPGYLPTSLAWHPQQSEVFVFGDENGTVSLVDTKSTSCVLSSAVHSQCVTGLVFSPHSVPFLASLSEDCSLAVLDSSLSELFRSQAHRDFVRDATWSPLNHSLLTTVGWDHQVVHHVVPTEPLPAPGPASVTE
Sequence of Translocator protein (P30536 whole entry): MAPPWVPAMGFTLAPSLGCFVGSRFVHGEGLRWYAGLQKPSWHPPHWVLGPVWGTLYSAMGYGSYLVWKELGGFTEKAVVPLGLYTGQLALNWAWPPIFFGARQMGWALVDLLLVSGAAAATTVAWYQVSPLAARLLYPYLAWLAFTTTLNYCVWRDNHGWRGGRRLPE
Description for in vitro: Apparent permeability across apical to basal side of human Caco-2 cells at 10 uM

As for `O=C(NCc1ccc(F)cc1)C1c2ccc(F)cc2C(=O)N1Cc1cc2cccnc2[nH]1` (configuration not stated), the logD in the series “physchem [1]” is 3.2. The hepatocyte CLint in series [2] came out at 123 µL/min/1e6 cells.
As to `N=C(N)Nc1ncc(CN2C(=O)c3ccccc3C2C(=O)NCc2ccc(F)cc2)s1` (configuration not stated), the bioavailability in series [3] worked out at 2%. In [4], the fraction unbound was 0.19. Also, the hepatocyte CLint in series [2] worked out at 34 µL/min/1e6 cells. This compound had a Vdss in series [5] of 1.6 L/kg. Moreover, the half-life in [6] was 66 min.
In the case of `N=C(N)Nc1nnc(CN2C(=O)c3ccccc3C2C(=O)NCc2ccc(F)cc2)s1` (configuration not stated), the logD in “physchem [1]” was 1.7. Also, the hepatocyte CLint in series [2] stood at 23 µL/min/1e6 cells.
`O=C1c2cc(F)ccc2[C@]2(CCN(Cc3ccc(F)cc3)C2=O)N1Cc1cc2ccncc2[nH]1` displayed a logD in “physchem [1]” of 2.8. In addition, the IC50 was 6400 nM in series [7] and 370 nM on PRMT5/MEP50 complex [8]. Further, the Ratio IC50 in the series with HCT-116 is greater than 5. Further, in series [2], the hepatocyte CLint was 6 µL/min/1e6 cells.
For the compound `CN(Cc1ccc(F)cc1)C(=O)C1c2ccccc2C(=O)N1Cc1cnc(NC(=N)N)s1` (configuration not stated), in the series “physchem [1]”, the logD came out at 2. Also, the hepatocyte CLint in series [2] was 84 µL/min/1e6 cells.
In the case of `O=C(NCc1ccc(F)cc1)C1c2ccc(F)cc2C(=O)N1Cc1cc2ncccc2[nH]1` (configuration not stated), the logD in the series “physchem [1]” worked out at 3.4. The hepatocyte CLint in series [2] stood at 112 µL/min/1e6 cells.
In the case of `O=C(NCc1ccc(F)cc1)C1c2ccccc2C(=O)N1Cc1cc2ncccc2[nH]1` (configuration not stated), the pH-dependent lipophilicity (logD) in the series “physchem [1]” amounted to 3. In addition, the hepatocyte CLint in series [2] is 70 µL/min/1e6 cells.
In the same order, the values of `N=C(N)Nc1ncc(CN2C(=O)c3ccccc3C2C(=O)N(Cc2ccc(F)cc2)C2CC2)s1` (configuration not stated) are 2.6 and 64 µL/min/1e6 cells.
`Nc1ccc2[nH]c(CN3C(=O)c4cc(F)ccc4[C@]34CCN(Cc3ccc(F)cc3)C4=O)nc2n1`: the hepatocyte CLint in series [9] is less than 1 µL/min/1e6 cells; in series [2], 5 µL/min/1e6 cells. This compound also came in with an IC50 in [7] of 1300 nM.
For `O=C1c2cc(F)ccc2[C@]2(CCN(Cc3ccc(F)cc3)C2=O)N1Cc1cc2ncccc2[nH]1`, the logD in “physchem [1]” is 3.1. Moreover, the hepatocyte CLint in series [2] is 246 µL/min/1e6 cells.
In the case of `Nc1nc2cc(CN3C(=O)c4cc(F)ccc4[C@]34CCN(Cc3ccc(F)cc3)C4=O)[nH]c2cc1F`, the bioavailability in series [3] was found to be 35%; in [20] it was 101%. For the same compound, the inhibition result with Lu-99 cell line [10] and in the series on Lu-99 cell line [24] was “Dose-Dependent Effect” in each case. This compound also yielded an IC50 in the series on Lu-99 cell line [11] of 124 nM. Moreover, the values for the hepatocyte CLint in [9] and in series [2] were less than 1 µL/min/1e6 cells and less than 5 µL/min/1e6 cells, respectively. Besides, the Vdss is 2.1 L/kg in series [12] and 2.4 L/kg in series [5]. Moreover, the inhibition in vivo at 100 mg/kg amounted to 71% with Lu-99 cell line [13] and 95% with Lu-99 cell line [16]. Further, the inhibition in vivo at 50 mg/kg in series [14] was 97%. Also, the Activity in [15] was 50%; in series [19] it was “Non-Toxic”. In addition, the logD in the series “physchem [1]” is 2.8. This compound displayed a Papp A→B at 10 µM in the series “in vitro” of 48 ×10⁻⁶ cm/s. Besides, the inhibition in vivo at 10 mg/kg is 93% in series [17] and 33% in series [22]. Further, in the series “physchem [18]”, the solubility at 24 h amounted to 8 µM (≈ 3.93 µg/mL). Moreover, on Translocator protein, the Ki stood at 610 nM. Besides, the inhibition in vivo at 1 mg/kg in series [21] stood at 51%. For the same compound, the half-life in series [23] is 204 min; in series [6], 108 min.
With `Cn1c(CN2C(=O)c3cc(F)ccc3[C@]23CCN(Cc2ccc(F)cc2)C3=O)cc2nc(N)ccc21`, in “physchem [1]”, the logD is 2.2. In “physchem [18]”, this compound displayed a solubility at 24 h of 110 µM (≈ 53.6 µg/mL). The compound further displayed an IC50 in series [7] of 4800 nM. In the series with HCT-116, the Ratio IC50 is greater than 5. Also, the hepatocyte CLint in series [2] turned out to be 21 µL/min/1e6 cells.
In turn, `COc1ccc2c(c1)C(=O)N(Cc1cnc(NC(=N)N)s1)C2C(=O)NCc1ccc(F)cc1` (configuration not stated) had a log distribution coefficient (logD) in “physchem [1]” of 2.3. Also, the IC50 is 380 nM in series [7], 12 nM on PRMT5/MEP50 complex [8] and 51 nM on PRMT5/MEP50 complex [25]. In addition, the Ratio IC50 in the series with HCT-116 amounted to 7.7. In addition, in series [2], the hepatocyte CLint was determined as 22 µL/min/1e6 cells.
The compound `Nc1ccc2ncc(CN3C(=O)c4cc(F)ccc4[C@]34CCN(Cc3ccc(F)cc3)C4=O)cc2n1` displayed a logD in “physchem [1]” of 2.2. This compound also displayed a Papp A→B at 10 µM in “in vitro” of 27 ×10⁻⁶ cm/s. The compound also returned a solubility at 24 h in “physchem [18]” of 55 µM (≈ 26.7 µg/mL). For the same compound, 240 nM corresponded to half-maximal inhibition in [7] (IC50). For the same compound, in the series on HCT-116, the Ratio IC50 was found to be 18. Besides, the hepatocyte CLint in series [2] is 22 µL/min/1e6 cells.
